Patent US20250170248A1, “SMARCA DEGRADERS AND USES THEREOF” (Kymera Therapeutics, Inc., priority 2021, published 2025)

Tests used:
Type in all cases: cell-based
[1] = target: T1, SMARCA2 (Homo sapiens, UniProt P51531); assay: MSD SMARCA2 degradation in A549 cell line; conditions: 24 h; for Dmax: A549, A549 cells; for DC50: A549 cells, read-out: SMARCA2 MSD A549 degradation 24 h: Average external-Abs DC50
Procedure, shortened: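 SMARCA2 protein remaining after 24 h exposure of A549 cells (top concentration 1000 nM, 3-fold dilutions) was measured by MSD electrochemiluminescence immunoassay of cell lysates. Results are given as binned DC50 and maximal degradation (Dmax) codes.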

[2] = target: T2, SMARCA4 (Homo sapiens, UniProt P51532); assay: SMARCA4 Western blot degradation in MV4-11 cells; conditions: 24 h; for Dmax: MV4-11, MV4-11 cells, read-out: SMARCA4 MSD MV411 degradation 24 h: average Dmax %; for DC50: MV4-11 cells, read-out: SMARCA4 MSD MV411 degradation 24 h: Mean external-Abs DC50
T2 construct: SMARCA2/SMARCA4 protein degradation selectivity in MV4-11 cells; endogenous in cells; host or cells: MV4-11
Procedure, shortened: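 Fluorescent LI-COR imaging of Western blots quantified SMARCA2 and SMARCA4 protein remaining in MV4-11 cells after 24 h of compound treatment. β-actin was the loading control, and DC50, Dmax and SMARCA2/4 selectivity are given as letter-coded ranges.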

[3] = target: T1, SMARCA2; assay: SMARCA2 Western blot degradation in MV4-11 cells; parameters: SMARCA2/SMARCA4 protein degradation selectivity in MV4-11 cells; endogenous in cells; host or cells: MV4-11; conditions: for Dmax: MV4-11, MV4-11 cells, read-out: SMARCA2 MSD MV411 degradation 24 h: average Dmax %; for Dmax / DC50: 24 h; for DC50 / Selectivity in MV411: MV4-11 cells; for DC50: read-out: SMARCA2 MSD MV411 degradation 24 h: Mean external-Abs DC50; for Selectivity in MV411: SMARCA2/4 selectivity

T2 sequence (P51532 whole entry): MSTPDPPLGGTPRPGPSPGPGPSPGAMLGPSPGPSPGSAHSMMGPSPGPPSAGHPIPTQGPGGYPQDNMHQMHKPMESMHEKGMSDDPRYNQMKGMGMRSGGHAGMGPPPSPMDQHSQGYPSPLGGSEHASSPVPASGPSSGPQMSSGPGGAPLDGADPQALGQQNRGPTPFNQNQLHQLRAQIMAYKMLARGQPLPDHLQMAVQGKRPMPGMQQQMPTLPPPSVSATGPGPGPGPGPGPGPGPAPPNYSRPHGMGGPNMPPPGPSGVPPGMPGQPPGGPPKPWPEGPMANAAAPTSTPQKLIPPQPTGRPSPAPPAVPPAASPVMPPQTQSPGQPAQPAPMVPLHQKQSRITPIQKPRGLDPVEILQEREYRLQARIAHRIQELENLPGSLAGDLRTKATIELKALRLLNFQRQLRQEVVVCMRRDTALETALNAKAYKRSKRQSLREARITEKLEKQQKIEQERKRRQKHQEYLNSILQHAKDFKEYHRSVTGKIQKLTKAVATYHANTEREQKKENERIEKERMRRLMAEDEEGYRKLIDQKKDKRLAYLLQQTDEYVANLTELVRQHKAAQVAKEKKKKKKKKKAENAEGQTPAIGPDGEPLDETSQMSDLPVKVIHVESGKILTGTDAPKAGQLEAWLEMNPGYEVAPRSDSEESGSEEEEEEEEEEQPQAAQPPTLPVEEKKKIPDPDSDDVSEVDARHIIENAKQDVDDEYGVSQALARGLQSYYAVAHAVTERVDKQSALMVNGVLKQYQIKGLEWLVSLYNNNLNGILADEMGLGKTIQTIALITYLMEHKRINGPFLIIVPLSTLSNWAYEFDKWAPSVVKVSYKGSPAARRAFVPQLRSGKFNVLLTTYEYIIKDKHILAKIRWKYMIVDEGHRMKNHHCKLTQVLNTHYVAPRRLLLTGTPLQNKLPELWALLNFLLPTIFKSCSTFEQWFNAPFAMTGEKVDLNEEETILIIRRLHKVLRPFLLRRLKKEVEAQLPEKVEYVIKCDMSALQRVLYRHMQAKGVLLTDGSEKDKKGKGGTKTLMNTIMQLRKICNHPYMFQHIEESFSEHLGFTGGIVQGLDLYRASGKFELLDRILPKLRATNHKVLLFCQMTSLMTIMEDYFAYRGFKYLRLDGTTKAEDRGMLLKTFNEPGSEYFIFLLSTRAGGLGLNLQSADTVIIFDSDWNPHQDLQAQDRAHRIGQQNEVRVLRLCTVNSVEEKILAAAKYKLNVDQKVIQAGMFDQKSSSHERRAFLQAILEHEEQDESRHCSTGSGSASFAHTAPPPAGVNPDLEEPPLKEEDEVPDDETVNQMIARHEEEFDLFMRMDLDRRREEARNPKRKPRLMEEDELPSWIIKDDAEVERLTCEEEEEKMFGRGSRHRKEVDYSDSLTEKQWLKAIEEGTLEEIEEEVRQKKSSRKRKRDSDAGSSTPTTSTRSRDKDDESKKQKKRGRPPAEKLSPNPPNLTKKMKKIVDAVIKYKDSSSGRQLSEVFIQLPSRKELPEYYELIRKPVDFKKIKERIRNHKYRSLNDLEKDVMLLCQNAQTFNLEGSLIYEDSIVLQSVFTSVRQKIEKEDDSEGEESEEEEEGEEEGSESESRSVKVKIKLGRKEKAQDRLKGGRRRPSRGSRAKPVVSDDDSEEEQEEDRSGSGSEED
T1 sequence (P51531 whole entry): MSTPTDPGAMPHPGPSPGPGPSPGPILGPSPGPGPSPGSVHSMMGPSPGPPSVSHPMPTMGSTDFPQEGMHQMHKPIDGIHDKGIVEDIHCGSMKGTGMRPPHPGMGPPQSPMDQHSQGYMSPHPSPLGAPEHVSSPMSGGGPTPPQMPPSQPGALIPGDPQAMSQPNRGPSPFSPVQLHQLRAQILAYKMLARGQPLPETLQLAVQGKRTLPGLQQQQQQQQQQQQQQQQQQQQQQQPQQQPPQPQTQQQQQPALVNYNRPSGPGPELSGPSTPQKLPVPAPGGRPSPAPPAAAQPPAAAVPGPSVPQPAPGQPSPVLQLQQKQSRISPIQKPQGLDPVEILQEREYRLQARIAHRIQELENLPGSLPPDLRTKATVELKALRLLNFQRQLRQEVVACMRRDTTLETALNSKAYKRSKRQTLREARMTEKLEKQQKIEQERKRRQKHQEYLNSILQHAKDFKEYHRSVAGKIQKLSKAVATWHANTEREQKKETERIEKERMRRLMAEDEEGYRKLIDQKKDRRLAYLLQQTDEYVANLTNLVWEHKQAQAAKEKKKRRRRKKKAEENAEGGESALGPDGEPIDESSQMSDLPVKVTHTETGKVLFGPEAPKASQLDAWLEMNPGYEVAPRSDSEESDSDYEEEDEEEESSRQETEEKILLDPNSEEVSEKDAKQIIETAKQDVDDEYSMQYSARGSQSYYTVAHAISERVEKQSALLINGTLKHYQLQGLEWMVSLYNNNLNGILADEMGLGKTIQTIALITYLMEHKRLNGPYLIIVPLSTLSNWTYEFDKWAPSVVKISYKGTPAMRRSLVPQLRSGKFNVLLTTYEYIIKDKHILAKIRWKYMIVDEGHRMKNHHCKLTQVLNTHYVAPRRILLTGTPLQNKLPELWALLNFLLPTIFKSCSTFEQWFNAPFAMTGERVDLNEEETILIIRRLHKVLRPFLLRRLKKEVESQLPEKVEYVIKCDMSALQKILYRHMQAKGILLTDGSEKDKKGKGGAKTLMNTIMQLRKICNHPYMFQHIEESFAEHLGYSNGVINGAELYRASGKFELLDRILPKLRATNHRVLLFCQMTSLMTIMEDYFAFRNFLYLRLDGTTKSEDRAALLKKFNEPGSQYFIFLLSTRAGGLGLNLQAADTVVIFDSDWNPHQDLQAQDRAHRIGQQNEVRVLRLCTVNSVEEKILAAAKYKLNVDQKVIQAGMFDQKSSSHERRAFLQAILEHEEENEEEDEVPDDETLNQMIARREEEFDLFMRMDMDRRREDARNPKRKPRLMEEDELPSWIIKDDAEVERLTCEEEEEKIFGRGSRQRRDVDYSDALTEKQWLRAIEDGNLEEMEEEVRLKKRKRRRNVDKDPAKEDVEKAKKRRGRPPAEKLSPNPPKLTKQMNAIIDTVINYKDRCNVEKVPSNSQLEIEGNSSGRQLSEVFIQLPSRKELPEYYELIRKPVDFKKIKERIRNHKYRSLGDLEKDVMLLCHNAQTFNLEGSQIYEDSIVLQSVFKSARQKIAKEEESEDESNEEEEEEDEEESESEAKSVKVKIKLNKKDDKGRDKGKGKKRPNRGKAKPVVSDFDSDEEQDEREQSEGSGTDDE

Structure (SMILES) | Dmax [1] | DC50 [1] | Dmax [2] | DC50 [2] | Dmax [3] | DC50 [3] | Selectivity in MV411 [3]
C#Cc1ccc(CNC(=O)[C@@H]2C[C@@H](O)CN2C(=O)[C@@H](NC(=O)N2CC3(CC(N4CCC([C@H]5CC[C@H](N6CCc7[nH]c8nnc(-c9ccccc9O)cc8c7[C@H]6C)CC5)CC4)C3)C2)C(C)(C)C)cc1 [I-184] | > 90% | > 100 nM | < 50% | > 100 nM | < 50% | > 100 nM | C (C (10-100 fold))
C#Cc1ccc(CNC(=O)[C@@H]2C[C@@H](O)CN2C(=O)[C@@H](NC(=O)N2CC3(CC(N4CCC([C@H]5CC[C@@H](N6CCc7[nH]c8nnc(-c9ccccc9O)cc8c7[C@H]6C)CC5)CC4)C3)C2)C(C)(C)C)cc1 [I-185] | > 90% | > 100 nM | 70 to 90% | > 100 nM | 70 to 90% | 10 to 100 nM | C (C (10-100 fold))
C#Cc1ccc(CNC(=O)[C@@H]2C[C@@H](O)CN2C(=O)[C@@H](NC(=O)N2CC3(CC(N4CCN([C@H]5CC[C@H](N6CCc7[nH]c8nnc(-c9ccccc9O)cc8c7[C@H]6C)CC5)CC4)C3)C2)C(C)(C)C)cc1 [I-186] | > 90% | 50 to 100 nM | > 90% | 10 to 100 nM | 70 to 90% | 10 to 100 nM | D (D (<10 fold))
C#Cc1ccc(CNC(=O)[C@@H]2C[C@@H](O)CN2C(=O)[C@@H](NC(=O)N2CC3(CC(N4CCN([C@H]5CC[C@@H](N6CCc7[nH]c8nnc(-c9ccccc9O)cc8c7[C@H]6C)CC5)CC4)C3)C2)C(C)(C)C)cc1 [I-187] | > 90% | 50 to 100 nM | 70 to 90% | > 100 nM | 70 to 90% | 1 to 10 nM | C (C (10-100 fold))
C#Cc1ccc(CNC(=O)[C@@H]2C[C@@H](O)CN2C(=O)[C@@H](NC(=O)N2CCC(CN3CCC(N4CCC(N5CCc6[nH]c7nnc(-c8ccccc8O)cc7c6[C@H]5C)CC4)CC3)CC2)C(C)(C)C)cc1 [I-189] | 50 to 70% | > 100 nM | < 50% | > 100 nM | < 50% | > 100 nM | C (C (10-100 fold))
C#Cc1ccc(CNC(=O)[C@@H]2C[C@@H](O)CN2C(=O)[C@@H](NC(=O)N2CC3(CC(CN4CCC(N5CCC(N6CCc7[nH]c8nnc(-c9ccccc9O)cc8c7[C@H]6C)CC5)CC4)C3)C2)C(C)(C)C)cc1 [I-190] | > 90% | > 100 nM | 50 to 70% | > 100 nM | 50 to 70% | 10 to 100 nM | C (C (10-100 fold))
C#Cc1ccc(CNC(=O)[C@@H]2C[C@@H](O)CN2C(=O)[C@@H](NC(=O)N2CC3(CC(N4CCC(N5CCc6[nH]c7nnc(-c8ccccc8O)cc7c6[C@H]5C)CC4)C3)C2)C(C)(C)C)cc1 [I-191] | > 90% | > 100 nM | 70 to 90% | > 100 nM | 70 to 90% | 1 to 10 nM | C (C (10-100 fold))
C#Cc1ccc(CNC(=O)[C@@H]2C[C@@H](O)CN2C(=O)[C@@H](NC(=O)N2CCC(C(=O)N3CCC(N4CCC(N5CCc6[nH]c7nnc(-c8ccccc8O)cc7c6[C@H]5C)CC4)CC3)CC2)C(C)(C)C)cc1 [I-192] | 70 to 90% | > 100 nM | < 50% | > 100 nM | < 50% | > 100 nM | C (C (10-100 fold))
C#Cc1ccc(CNC(=O)[C@@H]2C[C@@H](O)CN2C(=O)[C@@H](NC(=O)N2CCN(C[C@H]3CC[C@@H](N4CCC(N5CCc6[nH]c7nnc(-c8ccccc8O)cc7c6[C@H]5C)CC4)CC3)CC2)C(C)(C)C)cc1 [I-193] | 70 to 90% | > 100 nM | < 50% | > 100 nM | < 50% | > 100 nM | C (C (10-100 fold))
C#Cc1ccc(CNC(=O)[C@@H]2C[C@@H](O)CN2C(=O)[C@@H](NC(=O)N2CCN(C[C@H]3CC[C@H](N4CCC(N5CCc6[nH]c7nnc(-c8ccccc8O)cc7c6[C@H]5C)CC4)CC3)CC2)C(C)(C)C)cc1 [I-194] | 70 to 90% | > 100 nM | < 50% | > 100 nM | < 50% | > 100 nM | C (C (10-100 fold))
C#Cc1ccc(CNC(=O)[C@@H]2C[C@@H](O)CN2C(=O)[C@@H](NC(=O)C2CCN(CC3CCC(N4CCC(N5CCc6[nH]c7nnc(-c8ccccc8O)cc7c6[C@H]5C)CC4)CC3)CC2)C(C)(C)C)cc1 (stereo partly drawn) [I-197] | 70 to 90% | > 100 nM | < 50% | > 100 nM | < 50% | > 100 nM | C (C (10-100 fold))
C#Cc1ccc(CNC(=O)[C@@H]2C[C@@H](O)CN2C(=O)[C@@H](NC(=O)N2CCC(CN3CCC(N4CCc5[nH]c6nnc(-c7ccccc7O)cc6c5[C@H]4C)CC3)CC2)C(C)(C)C)cc1 [I-198] | 70 to 90% | > 100 nM | < 50% | > 100 nM | 50 to 70% | 10 to 100 nM | C (C (10-100 fold))
C#Cc1ccc(CNC(=O)[C@@H]2C[C@@H](O)CN2C(=O)[C@@H](NC(=O)N2CCN(C[C@H]3CC[C@@H](N4CCc5[nH]c6nnc(-c7ccccc7O)cc6c5[C@H]4C)CC3)CC2)C(C)(C)C)cc1 [I-199] | > 90% | > 100 nM | < 50% | > 100 nM | 50 to 70% | 10 to 100 nM | C (C (10-100 fold))
C#Cc1ccc(CNC(=O)[C@@H]2C[C@@H](O)CN2C(=O)[C@@H](NC(=O)N2CCN(C[C@H]3CC[C@H](N4CCc5[nH]c6nnc(-c7ccccc7O)cc6c5[C@H]4C)CC3)CC2)C(C)(C)C)cc1 [I-200] | > 90% | > 100 nM | < 50% | > 100 nM | 50 to 70% | 10 to 100 nM | C (C (10-100 fold))
C#Cc1ccc(CNC(=O)[C@@H]2C[C@@H](O)CN2C(=O)[C@@H](NC(=O)N2CCN(CC3CCN([C@H]4CC[C@@H](N5CCc6[nH]c7nnc(-c8ccccc8O)cc7c6[C@H]5C)CC4)CC3)CC2)C(C)(C)C)cc1 [I-203] | 70 to 90% | > 100 nM | < 50% | > 100 nM | < 50% | > 100 nM | C (C (10-100 fold))
C#Cc1ccc(CNC(=O)[C@@H]2C[C@@H](O)CN2C(=O)[C@@H](NC(=O)N2CCN(CC3CCN([C@H]4CC[C@H](N5CCc6[nH]c7nnc(-c8ccccc8O)cc7c6[C@H]5C)CC4)CC3)CC2)C(C)(C)C)cc1 [I-204] | 70 to 90% | > 100 nM | < 50% | > 100 nM | < 50% | > 100 nM | C (C (10-100 fold))
C#Cc1ccc(CNC(=O)[C@@H]2C[C@@H](O)CN2C(=O)[C@@H](NC(=O)N2CC3(CC(N4CC5(CC(N6CCC(N7CCc8[nH]c9nnc(-c%10ccccc%10O)cc9c8[C@H]7C)CC6)C5)C4)C3)C2)C(C)(C)C)cc1 [I-205] | > 90% | > 100 nM | < 50% | > 100 nM | < 50% | > 100 nM | C (C (10-100 fold))
C#Cc1ccc(CNC(=O)[C@@H]2C[C@@H](O)CN2C(=O)[C@@H](NC(=O)N2CCC(N3CC4(CC(N5CCC(N6CCc7[nH]c8nnc(-c9ccccc9O)cc8c7[C@H]6C)CC5)C4)C3)CC2)C(C)(C)C)cc1 [I-206] | 70 to 90% | > 100 nM | < 50% | > 100 nM | < 50% | > 100 nM | C (C (10-100 fold))
C#Cc1ccc(CNC(=O)[C@@H]2C[C@@H](O)CN2C(=O)[C@@H](NC(=O)N2CC3(CC(N4CCC(N5CC6(CC(N7CCc8[nH]c9nnc(-c%10ccccc%10O)cc9c8[C@H]7C)C6)C5)CC4)C3)C2)C(C)(C)C)cc1 [I-207] | > 90% | > 100 nM | < 50% | > 100 nM | 70 to 90% | 1 to 10 nM | B (B (>100-500 fold))
C#Cc1ccc(CNC(=O)[C@@H]2C[C@@H](O)CN2C(=O)[C@@H](NC(=O)N2CCC(N3CCC(N4CC5(CC(N6CCc7[nH]c8nnc(-c9ccccc9O)cc8c7[C@H]6C)C5)C4)CC3)CC2)C(C)(C)C)cc1 [I-208] | 70 to 90% | > 100 nM | < 50% | > 100 nM | < 50% | > 100 nM | C (C (10-100 fold))
C#Cc1ccc(CNC(=O)[C@@H]2C[C@@H](O)CN2C(=O)[C@@H](NC(=O)N2CCC(N3CC4(CC(N5CC6(CC(N7CCc8[nH]c9nnc(-c%10ccccc%10O)cc9c8[C@H]7C)C6)C5)C4)C3)CC2)C(C)(C)C)cc1 [I-209] | 70 to 90% | > 100 nM | < 50% | > 100 nM | < 50% | > 100 nM | C (C (10-100 fold))
